Data taken from US20200199647A1, “ASSAY FOR SCREENING MODULATORS OF HOLOPHOSPHATASE ACTIVITY” (UNITED KINGDOM RESEARCH AND INNOVATION, priority 2017, published 2020).

Experiments:
R15A^N/R15B^C = molecular target: T1, R15A^N/R15B^C (Homo sapiens, UniProt O75807+Q5SWA1); assay: Dephosphorylation of P-eIF2α by chimeric holophosphatase PP1c-R15A^N/R15B^C; assay type: biochemical; settings: PP1c 10 nM, compounds 100 μM, 30° C., 16 h
T1 construct: PPP1R15A amino acids 325-636 (R15A), 325-512 (R15A^N), and 513-636 (R15A^C); PPP1R15B amino acids 340-698 (R15B), 340-635 (R15B^N), and 636-698 (R15B^C); R15B^C (PPP1R15B amino acids 636-698); His6 (C); made in house; host or cells: E. coli BL21 pLysS (chimera, eIF2α); E. coli BL21/pGro7 (PP1c)
Excerpt: (§1) The cDNA encoding human PPP1R15A, PPP1R15B and PPP1R3A regulatory subunits were cloned into a pMAL-c5×-His vector, encoding for an amino-terminal MBP-tag and a carboxy-terminal His6-tag. […] R15A^N/R15B^C Chimeras were obtained by swapping the amino-terminal regions (R15^N) of R15A and R15B proteins described above, whilst maintaining the same carboxy-terminal regions (R15^C), to produce R15B^N/R15A^C and […] chimeras respectively, using In-Fusion cloning (Takara). All regulatory subunits were expressed in BL21 pLysS cells in Luria broth (LB) at 30° C. overnight. […] R15 proteins were stored at −80° C. and used within one month.
(§2) PP1c was diluted to the appropriate concentration (as indicated in the figure legends) in dephosphorylation buffer immediately prior to use. Dephosphorylation reactions were carried out by pre-incubating diluted PP1c in the presence or absence of regulatory subunits (either […]), and/or compounds (all at 100 μM, except for Salubrinal which was used at 30 μM), for 15′ at RT. All compounds were diluted in DMSO, and DMSO vehicle was used in all control experiments.
(§3) The reaction was initiated by the addition of 1 μM P-eIF2α or ^33P Phosphorylase a substrates and then incubated at 30° C. for 16 h with shaking at 350 rpm. Reactions were stopped by addition of 4× Laemmli sample buffer. eIF2α samples were analyzed by immunoblotting or Phos-tag gels. […]

R15B^N/R15A^C = molecular target: T2, R15B^N/R15A^C (Homo sapiens, UniProt O75807+Q5SWA1); assay: Dephosphorylation of P-eIF2α by chimeric holophosphatase PP1c-R15B^N/R15A^C; assay type: biochemical; settings: PP1c 10 nM, compounds 100 μM, 30° C., 16 h
T2 construct: PPP1R15B amino acids 340-698 (R15B), 340-635 (R15B^N), and 636-698 (R15B^C); PPP1R15A amino acids 325-636 (R15A), 325-512 (R15A^N), and 513-636 (R15A^C); R15A^C (PPP1R15A amino acids 513-636); His6 (C); made in house; host or cells: E. coli BL21 pLysS (chimera, eIF2α); E. coli BL21/pGro7 (PP1c)
Excerpt: as §1, §2, §3

R15B = molecular target: T3, R15B (Homo sapiens, UniProt Q5SWA1); assay: Limited trypsin proteolysis of R15B (conformational change); settings: 22° C.
T3 construct: PPP1R15B amino acids 340-698 (R15B); His6 (C); made in house; host or cells: E. coli BL21 pLysS
T3 sequence (Q5SWA1 340-698): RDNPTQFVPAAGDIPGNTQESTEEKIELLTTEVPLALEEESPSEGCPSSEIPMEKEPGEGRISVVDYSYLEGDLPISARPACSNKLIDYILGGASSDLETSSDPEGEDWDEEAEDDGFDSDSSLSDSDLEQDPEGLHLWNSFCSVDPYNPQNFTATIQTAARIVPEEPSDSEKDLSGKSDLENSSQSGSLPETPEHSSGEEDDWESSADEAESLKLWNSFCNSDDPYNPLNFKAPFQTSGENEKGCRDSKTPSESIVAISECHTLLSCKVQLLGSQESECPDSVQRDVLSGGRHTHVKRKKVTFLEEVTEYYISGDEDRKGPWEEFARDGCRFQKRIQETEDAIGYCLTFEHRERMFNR
Description: Reactions were allowed to proceed at 22° C. with shaking at 350 rpm. At time points 30 min, 1 h, 2 h or 3 h, 30 μl of sample was removed from the mix and digestion was stopped by addition of 10 μl of 16% SDS Laemmli sample buffer. Samples were run on 4-12% NuPAGE Bis-Tris gels (Life Technologies). Proteins were visualised by staining with InstantBlue Coomassie Protein Stain (Expedeon) protein stain.
Purified R15A and R15B were diluted to 3 μM in PBS, and incubated for 15′ at RT with 100 μM Raphin1, or DMSO vehicle. Reactions were initiated by addition of 5 nM of trypsin from bovine pancreas (Sigma), made up in PBS, and allowed to proceed for 5′ at 22° C., with shaking at 350 rpm. Digestion was stopped by addition of 4× Laemmli sample buffer and samples were run on 4-12% NuPAGE Bis-Tris gels (Life Technologies). Proteins were visualised by staining with InstantBlue Protein Stain.

R15B-PP1c = molecular target: T4, R15B-PP1c (Homo sapiens, UniProt Q5SWA1); assay: In vitro dephosphorylation of P-eIF2α by recombinant R15B-PP1c holophosphatase (10 nM PP1c); assay type: biochemical; settings: PP1c 10 nM, 1 μM P-eIF2α, compounds 100 μM, 30° C., 16 h
T4 construct: PPP1R15B amino acids 340-698 (R15B); His6 (C); made in house; host or cells: E. coli BL21 pLysS (R15B, eIF2α); E. coli BL21/pGro7 (PP1c)
Description: as §2
(§4) The reaction was initiated by the addition of 1 μM P-eIF2α or ^33P Phosphorylase a substrates and then incubated at 30° C. for 16 h with shaking at 350 rpm. Reactions were stopped by addition of 4× Laemmli sample buffer. eIF2α samples were analyzed by immunoblotting or Phos-tag gels. P-eIF2α dephosphorylation was analysed by immunoblotting using anti-Phospho-eIF2α (SerS1) (#9721) (Cell Signaling) and anti-eIF2α (ab26197) (AbCam) antibodies. Samples in FIG. 8 and FIG. 16 were run on a 15% SuperSep Phos-tag acrylamide gel (Alpha Laboratories) and visualized by staining with InstantBlue Protein Stain.

R15A-PP1c = molecular target: T5, R15A-PP1c (Homo sapiens, UniProt O75807); assay: In vitro dephosphorylation of P-eIF2α by recombinant R15A-PP1c holophosphatase (10 nM PP1c); assay type: biochemical; settings: PP1c 10 nM, 1 μM P-eIF2α, compounds 100 μM, 30° C., 16 h
T5 construct: PPP1R15A amino acids 325-636 (R15A); His6 (C); made in house; host or cells: E. coli BL21 pLysS (R15A, eIF2α); E. coli BL21/pGro7 (PP1c)
Description: as §2
as §4, with “P-eIF2α dephosphorylation was analysed by immunoblotting using anti-Phospho-eIF2α (SerS1) (#9721) (Cell Signaling) and anti-eIF2α (ab26197) (AbCam) antibodies.” left out

PP1c = molecular target: T6, PP1c (Homo sapiens, UniProt P62136); assay: Dephosphorylation of P-eIF2α by increasing amounts of PP1c alone; assay type: biochemical; settings: compound 100 μM, 30° C., 16 h
T6 construct: The cDNA encoding amino acids 7-330 of human PP1cα; made in house; host or cells: E. coli BL21/pGro7 (PP1c); E. coli BL21 pLysS (eIF2α)
Description: as §2
as §4, with “P-eIF2α dephosphorylation was analysed by immunoblotting using anti-Phospho-eIF2α (SerS1) (#9721) (Cell Signaling) and anti-eIF2α (ab26197) (AbCam) antibodies.” left out

T6 sequence (P62136 7-330): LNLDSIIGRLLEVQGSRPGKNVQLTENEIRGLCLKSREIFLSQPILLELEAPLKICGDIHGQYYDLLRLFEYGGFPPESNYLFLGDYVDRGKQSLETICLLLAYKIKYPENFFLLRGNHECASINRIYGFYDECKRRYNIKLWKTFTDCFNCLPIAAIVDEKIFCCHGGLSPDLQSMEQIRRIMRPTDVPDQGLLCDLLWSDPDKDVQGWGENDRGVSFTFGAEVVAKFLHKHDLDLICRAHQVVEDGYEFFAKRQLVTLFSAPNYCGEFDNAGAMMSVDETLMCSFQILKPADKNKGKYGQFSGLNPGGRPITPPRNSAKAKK
T2 sequence (Q5SWA1+O75807 fused, stated change not applied): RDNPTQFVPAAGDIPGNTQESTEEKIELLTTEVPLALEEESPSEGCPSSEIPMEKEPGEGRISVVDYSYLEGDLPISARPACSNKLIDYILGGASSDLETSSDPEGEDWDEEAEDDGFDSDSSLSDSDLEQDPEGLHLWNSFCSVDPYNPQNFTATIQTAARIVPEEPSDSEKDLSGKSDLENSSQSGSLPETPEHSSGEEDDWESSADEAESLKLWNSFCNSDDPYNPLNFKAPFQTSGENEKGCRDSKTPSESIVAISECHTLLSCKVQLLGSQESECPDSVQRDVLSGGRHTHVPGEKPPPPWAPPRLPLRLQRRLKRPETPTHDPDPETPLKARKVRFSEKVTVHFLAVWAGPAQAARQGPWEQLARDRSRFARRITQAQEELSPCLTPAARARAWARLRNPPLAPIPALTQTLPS
T2 sequence (P62136 7-330 partner): as the sequence (P62136 7-330) above
T1 sequence (O75807+Q5SWA1 fused, stated change not applied): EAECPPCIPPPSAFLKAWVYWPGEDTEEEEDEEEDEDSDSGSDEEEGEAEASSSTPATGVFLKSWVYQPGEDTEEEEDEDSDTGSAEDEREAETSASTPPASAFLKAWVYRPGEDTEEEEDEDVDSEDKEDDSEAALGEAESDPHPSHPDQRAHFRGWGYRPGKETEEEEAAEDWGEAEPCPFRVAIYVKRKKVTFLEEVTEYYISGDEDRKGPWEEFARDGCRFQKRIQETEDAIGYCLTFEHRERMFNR
T1 sequence (P62136 7-330 partner): as the sequence (P62136 7-330) above
T4 sequence (P62136 7-330 partner limits assumed, one chain of several): as the sequence (P62136 7-330) above
T5 sequence (O75807 325-636, stated change not applied): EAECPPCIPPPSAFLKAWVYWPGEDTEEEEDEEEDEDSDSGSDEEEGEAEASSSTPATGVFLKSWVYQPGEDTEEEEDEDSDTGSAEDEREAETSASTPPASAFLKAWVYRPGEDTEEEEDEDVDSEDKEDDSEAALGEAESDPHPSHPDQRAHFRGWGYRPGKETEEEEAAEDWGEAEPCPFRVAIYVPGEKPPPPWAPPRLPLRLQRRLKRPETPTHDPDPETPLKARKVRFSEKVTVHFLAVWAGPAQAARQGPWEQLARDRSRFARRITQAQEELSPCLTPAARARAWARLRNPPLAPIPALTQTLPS
T5 sequence (P62136 7-330 partner): as the sequence (P62136 7-330) above

N=C(N)N/N=C/c1c(Cl)cccc1Cl [Guanabenz]
inhibition of R15A^N/R15B^C chimeric holophosphatase (R15A^N/R15B^C): inhibited
inhibition of R15B^N/R15A^C chimeric holophosphatase (R15B^N/R15A^C): largely insensitive
sensitivity of R15B to trypsin proteolysis (R15B; 100 μM compound, 0.5 μM R15B, 2.5 nM trypsin, 30 min to 3 h): No such protective effects
inhibition of R15B-PP1c eIF2α holophosphatase (R15B-PP1c): not R15B-PP1c
inhibition of R15A-PP1c eIF2α holophosphatase (R15A-PP1c): selectively inhibited R15A-PP1c
inhibition of PP1c alone (PP1c): did not inhibit PP1c

NC(N)=N/N=C/c1cccc(Cl)c1Cl [Raphin1]
inhibition of R15A^N/R15B^C chimeric holophosphatase (R15A^N/R15B^C): not R15A^N/R15B^C
inhibition of R15B^N/R15A^C chimeric holophosphatase (R15B^N/R15A^C): selectively inhibited R15B^N/R15A^C
trypsin sensitivity of R15B (R15B; 100 μM Raphin1, 3 μM R15B, 5 nM trypsin, 5 min): protected R15B
inhibition of R15B-PP1c eIF2α holophosphatase (R15B-PP1c): selectively inhibited R15B-PP1c
inhibition of R15A-PP1c eIF2α holophosphatase (R15A-PP1c): not R15A-PP1c
inhibition of PP1c alone (PP1c): did not inhibit PP1c
